Measured values reported in US12077503B2, “Substituted cyclic amides and their use as herbicides” (FMC CORPORATION, priority 2015, dated 2024).

Legend:
Type in all cases: in vivo
[1] = test system: ducksalad (Heteranthera limosa); assay: Test B flooded paddy test; details: Heteranthera limosa, Flood, 250 g ai/ha; scale of 0 to 100 where 0 is no effect and 100 is complete control; read-out: Ducksalad plant response rating
In short: (§1)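 Greenhouse paddy pots with 2-leaf stage plants received compound by direct addition to floodwater 3 cm deep, kept at that level. Scored visually at 13–15 d versus controls (0 no effect; 100 complete control).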

[2] = test system: barnyardgrass (Echinochloa crus-galli); assay: Test B flooded paddy test; details: Echinochloa crus-galli, Flood, 250 g ai/ha; scale of 0 to 100 where 0 is no effect and 100 is complete control; read-out: Barnyardgrass plant response rating
In short: as §1

[3] = test system: sedge, umbrella (small-flower umbrella sedge, Cyperus difformis); assay: Test B flooded paddy test; details: Cyperus difformis, Flood, 250 g ai/ha; scale of 0 to 100 where 0 is no effect and 100 is complete control; read-out: Sedge, Umbrella plant response rating
In short: as §1

rice (Oryra sativa) = assay: Test B flooded paddy test; details: Oryza sativa, Flood, 250 g ai/ha; scale of 0 to 100 where 0 is no effect and 100 is complete control; read-out: Rice plant response rating
In short: as §1

[4] = test system: pigweed (Amaranthus retroflexus); assay: Test A preemergence; details: Amaranthus retroflexus, pre-emergence, 240 h, read-out: Plant response rating, Pigweed; for pest or weed control at 125 g/ha: 125 g ai/ha, visual rating after approx. 10 d, 0 to 100 scale where 0 is no effect and 100 is complete control
[5] = test system: giant foxtail (Setaria faberii); assay: Test A preemergence; details: Setaria faberi, pre-emergence, 240 h, read-out: Plant response rating, Foxtail, Giant; for pest or weed control at 125 g/ha: 125 g ai/ha, visual rating after approx. 10 d, 0 to 100 scale where 0 is no effect and 100 is complete control
In short: (§2)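 Greenhouse, ~10 d after spray; visual injury vs untreated controls, 0 = no effect, 100 = complete control. Preemergence: directed soil spray over planted seeds. Postemergence: plants 2–10 cm, 1–2 leaf stage. Loam/sand blend. Compound in non-phytotoxic solvent with surfactant.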

Kochia (Kochia scoparia) = assay: Test A preemergence; details: Bassia scoparia, pre-emergence, 240 h, read-out: Plant response rating, Kochia; for pest or weed control at 125 g/ha: 125 g ai/ha, visual rating after approx. 10 d, 0 to 100 scale where 0 is no effect and 100 is complete control
In short: as §2

[6] = test system: barnyardgrass (Echinochloa crus-galli); assay: Test A preemergence; details: Echinochloa crus-galli, pre-emergence, 240 h, read-out: Plant response rating, Barnyardgrass; for pest or weed control at 125 g/ha: 125 g ai/ha, visual rating after approx. 10 d, 0 to 100 scale where 0 is no effect and 100 is complete control
In short: as §2

[7] = test system: ragweed (common ragweed, Ambrosia elatior); assay: Test A preemergence; details: Ambrosia artemisiifolia, pre-emergence, 240 h, read-out: Plant response rating, Ragweed; for pest or weed control at 125 g/ha: 125 g ai/ha, visual rating after approx. 10 d, 0 to 100 scale where 0 is no effect and 100 is complete control
In short: as §2

[8] = test system: ryegrass, Italian (Italian ryegrass, Lolium multiflorum); assay: Test A preemergence; details: Lolium multiflorum, pre-emergence, 240 h, read-out: Plant response rating, Ryegrass, Italian; for pest or weed control at 125 g/ha: 125 g ai/ha, visual rating after approx. 10 d, 0 to 100 scale where 0 is no effect and 100 is complete control
In short: as §2

[9] = test system: pigweed (Amaranthus retroflexus); assay: Test A postemergence; details: Amaranthus retroflexus, post-emergence, 240 h, read-out: Plant response rating, Pigweed; for pest or weed control at 125 g/ha: 125 g ai/ha, postemergence, visual injury after approximately 10 d, 0 to 100 scale (0 no effect, 100 complete control)
In short: as §2

[10] = test system: giant foxtail (Setaria faberii); assay: Test A postemergence; details: Setaria faberi, post-emergence, 240 h, read-out: Plant response rating, Foxtail, Giant; for pest or weed control at 125 g/ha: 125 g ai/ha, postemergence, visual injury after approximately 10 d, 0 to 100 scale (0 no effect, 100 complete control)
In short: as §2

[11] = test system: blackgrass (Alopecurus myosuroides); assay: Test A postemergence; details: Alopecurus myosuroides, post-emergence, 240 h, read-out: Plant response rating, Blackgrass; for pest or weed control at 125 g/ha: 125 g ai/ha, postemergence, visual injury after approximately 10 d, 0 to 100 scale (0 no effect, 100 complete control)
In short: as §2

[12] = test system: ryegrass, Italian (Italian ryegrass, Lolium multiflorum); assay: Test A postemergence; details: Lolium multiflorum, post-emergence, 240 h, read-out: Plant response rating, Ryegrass, Italian; for pest or weed control at 125 g/ha: 125 g ai/ha, postemergence, visual injury after approximately 10 d, 0 to 100 scale (0 no effect, 100 complete control)
In short: as §2

[13] = test system: wheat (Triticum aestivum); assay: Test A postemergence; details: Triticum aestivum, post-emergence, 240 h, read-out: Plant response rating, Wheat
In short: as §2

[14] = 500 g ai/ha, preemergence, 0 to 100 scale, 0 = no effect, 100 = complete control
[15] = Preemergence, 31 g ai/ha, 0 to 100 scale (0 no effect, 100 complete control)
[16] = Postemergence, 31 g ai/ha, visual injury after approx. 10 d, 0 to 100 scale, 0 no effect, 100 complete control

Compound	pest or weed control at 250 g/ha [1]	pest or weed control at 250 g/ha [2]	pest or weed control at 250 g/ha [3]	pest or weed control at 250 g/ha (rice (Oryra sativa))	pest or weed control at 125 g/ha ([4]; preemergence)	pest or weed control at 125 g/ha ([5]; preemergence)	pest or weed control at 125 g/ha (Kochia (Kochia scoparia); preemergence)	pest or weed control at 125 g/ha ([6]; preemergence)	pest or weed control at 125 g/ha ([7]; preemergence)	pest or weed control at 125 g/ha ([8]; preemergence)	pest or weed control at 125 g/ha [9]	pest or weed control at 125 g/ha [10]	pest or weed control at 125 g/ha [11]	pest or weed control at 125 g/ha [12]	other results
O=C1NC[C@H](c2cc(F)c(F)c(F)c2)[C@H]1C(=O)Nc1ccc(F)c(F)c1F [Compound 756]	100%	50%	0%	0%	40%	100%	70%	100%	0%	30%	0%	80%	0%	40%	pest or weed control at 500 g/ha [4, 14]: 70%; pest or weed control at 500 g/ha [5, 14]: 100%; pest or weed control at 500 g/ha (Kochia (Kochia scoparia); [14]): 70%; pest or weed control at 500 g/ha [6, 14]: 100%; pest or weed control at 500 g/ha [7, 14]: 30%; pest or weed control at 500 g/ha [8, 14]: 70%; plant injury at 125 g/ha ([13]; 125 g ai/ha, postemergence, visual injury after approximately 10 d, 0 to 100 scale (0 no effect, 100 complete control)): 30%
O=C1NCC[C@H](c2ccc(Cl)cc2)[C@H]1C(=O)Nc1cccc(F)c1F [Compound 795]	70%	0%	0%	0%	0%	70%	0%	80%	0%	0%	0%	50%	0%	0%	pest or weed control at 31 g/ha [4, 15]: 0%; pest or weed control at 31 g/ha [5, 15]: 0%; pest or weed control at 31 g/ha (Kochia (Kochia scoparia); [15]): 0%; pest or weed control at 31 g/ha [6, 15]: 30%; pest or weed control at 31 g/ha [7, 15]: 0%; pest or weed control at 31 g/ha [8, 15]: 0%; pest or weed control at 31 g/ha [9, 16]: 0%; pest or weed control at 31 g/ha [10, 16]: 0%; pest or weed control at 31 g/ha [11, 16]: 0%; pest or weed control at 31 g/ha [12, 16]: 0%; plant injury at 31 g/ha [13, 16]: 0%
